Measured values taken from patent US20120197004A1, “NOVEL ANTI-MICROBIAL PEPTIDOMIMETIC COMPOUNDS AND METHODS TO CALCULATE ANTI-MICROBIAL ACTIVITY” (priority 2006, published 2012).
Values after ≈ are worked out from the molar mass of the structure shown. Read-outs that look alike come from different tables or passages of the source. Where a SMILES comes first, the peptide text is derived from it. [ ]: non-standard residue; d: D form. ξ: configuration not given here. Phe(4-F) = N[C@@H](Cc1ccc(F)cc1)C(=O)O; ξTic = O=C(O)C1Cc2ccccc2CN1; ξOic = O=C(O)C1CC2CCCCC2N1; GABA = NCCCC(=O)O

Tests used:
in vitro [1] = conditions: monkey, microsomes, pH 7.4
Plague CO92 = conditions: in vitro MIC
in vitro [2] = conditions: dog, microsomes, pH 7.4
red blood cells [3] = conditions: 100 μM
[4] = tested on: Mycobacterium ranae (ATCC 110); conditions: ATCC 110
in vitro [5] = conditions: rat, microsomes, pH 7.4
in vitro [6] = conditions: human, microsomes, pH 7.4
Bacillus anthracis Ames = conditions: in vitro MIC
in vitro [7] = conditions: mouse, microsomes, pH 7.4
[8] = tested on: Bacillus subtillis (ATCC 43223); conditions: ATCC 43223
[9] = tested on: Staphylococcus aureus Methicillin/Gentamicin/Tetracycline Resistant (ATCC 33592); conditions: for MIC Staphylococcus aureus ME/GM/TC resistant: Minimal Inhibitory Concentration, tested at 100-0.1 in 1% DMSO; for Minimum Inhibitory Concentration Staphylococcus aureus ME/GM/TC resistant: in vitro MIC, tested at 100, 30, 10, 3, 1, 0.3 and 0.1 μM in 1% DMSO
F. tularensis SCHU-S4 = conditions: in vitro MIC
B. melitensis 16M = conditions: in vitro MIC
red blood cells [10] = test: Hemolytic studies; conditions: concentration not given
[11] = tested on: Salmonella typhimurium (ATCC 13311); conditions: ATCC 13311

Row | Structure (SMILES) | remaining at 0.25 h, 1 μM (in vitro [1]) [%] | remaining at 0.5 h, 1 μM (in vitro [1]) [%] | remaining at 1 h, 1 μM (in vitro [1]) [%] | remaining at 0.5 h, 1 μM (in vitro [2]) [%] | remaining at 1 h, 1 μM (in vitro [2]) [%] | % hemolysis 100/25 μM (first value) (red blood cells [3]) [%] | MIC Mycobacterium ranae [4] [µM] | Minimum Inhibitory Concentration Mycobacterium ranae [4] [µM] | remaining at 0.25 h, 1 μM (in vitro [5]) [%] | remaining at 0.5 h, 1 μM (in vitro [5]) [%] | remaining at 0.25 h, 1 μM (in vitro [6]) [%] | remaining at 0.5 h, 1 μM (in vitro [7]) [%] | remaining at 1 h, 1 μM (in vitro [7]) [%] | MIC Bacillus Subtillis [8] [µM] | MIC Staphylococcus aureus ME/GM/TC resistant [9] [µM] | Minimum Inhibitory Concentration Staphylococcus aureus ME/GM/TC resistant [9] [µM] | Minimum Inhibitory Concentration F. tularensis SCHU-S4 (F. tularensis SCHU-S4) [µg/mL] | Minimum Inhibitory Concentration B. melitensis 16M (B. melitensis 16M) [µg/mL] | remaining at 1 h, 1 μM (in vitro [5]) [%] | remaining at 0.25 h, 1 μM (in vitro [7]) [%] | further results
1 | CC(C)C[C@H](NC(=O)[C@@H](N)CCCCN)C(=O)N1Cc2ccccc2CC1C(=O)N1C(C(=O)N[C@@H](CCCCN)C(=O)N2Cc3ccccc3CC2C(=O)N2C(C(=O)N[C@@H](Cc3ccccc3)C(=O)N3Cc4ccccc4CC3C(=O)N3C(C(=O)N[C@@H](CCCCN)C(=O)N4Cc5ccccc5CC4C(=O)N4C(C(=O)N[C@@H](Cc5ccccc5)C(=O)N5Cc6ccccc6CC5C(=O)N5C(C(=O)N[C@@H](CCCCN)C(=O)N6Cc7ccccc7CC6C(=O)N6C(C(=O)N[C@@H](CCCCN)C(=O)N[C@@H](CCCNC(=N)N)C(N)=O)CC7CCCCC76)CC6CCCCC65)CC5CCCCC54)CC4CCCCC43)CC3CCCCC32)CC2CCCCC21 (stereo partly drawn) [FKAB-1F, NH2-KL-Tic-Oic-K-Tic-Oic-F-Tic-Oic-K-Tic-Oic-F-Tic-Oic-K-Tic-Oic-KR-CONH2] (H-KL[ξTic][ξOic]K[ξTic][ξOic]F[ξTic][ξOic]K[ξTic][ξOic]F[ξTic][ξOic]K[ξTic][ξOic]KR-NH2) | 28 | 29 | 9 | 27 | 8 | 63 | 30.00 (≈ 92.5 µg/mL) | 30 | 113 | 120 | 99 | 45 | 22 | 1.00 (≈ 3.08 µg/mL) | 10.00 (≈ 30.8 µg/mL) | 10 | >500 | >500 |  |  | Minimum Inhibitory Concentration Plague CO92 (Plague CO92; listed as 24): >500 µg/mL; Minimum Inhibitory Concentration Bacillus anthracis Ames (Bacillus anthracis Ames; listed as 24): 0.98 µg/mL
2 | CC(=O)NCC(=O)N[C@@H](Cc1ccccc1)C(=O)N1Cc2ccccc2CC1C(=O)N1C(C(=O)NCC(=O)N[C@@H](Cc2c[nH]c3ccccc23)C(=O)N2Cc3ccccc3CC2C(=O)N2C(C(=O)NCC(=O)N[C@@H](Cc3ccccc3)C(=O)N3Cc4ccccc4CC3C(=O)N3C(C(=O)NCC(=O)N[C@@H](Cc4c[nH]c5ccccc45)C(=O)N4Cc5ccccc5CC4C(=O)N[C@@H](CCCCN)C(=O)N[C@@H](CCCCN)C(=O)N[C@@H](CCCCN)C(=O)N[C@@H](CCCCN)C(N)=O)CC4CCCCC43)CC3CCCCC32)CC2CCCCC21 (stereo partly drawn) [FKAB-1G-Trp, Ac-GF-Tic-Oic-GW-Tic-Oic-GF-Tic-Oic-GW-Tic-KKKK-CONH2] (Ac-GF[ξTic][ξOic]GW[ξTic][ξOic]GF[ξTic][ξOic]GW[ξTic]KKKK-NH2) | 0 | 0 | 0 | 116 |  |  |  | 100 |  | 84 | 112 | 81 | 106 |  |  | 30 | >500 | >500 | 0 | 54 | Minimum Inhibitory Concentration Plague CO92 (Plague CO92; listed as 57): >500 µg/mL; Minimum Inhibitory Concentration Bacillus anthracis Ames (Bacillus anthracis Ames; listed as 57): 0.98 µg/mL
3 | CC(=O)NCC(=O)N[C@@H](Cc1ccccc1)C(=O)N1Cc2ccccc2CC1C(=O)N1C(C(=O)NCC(=O)N[C@@H](CCCCN)C(=O)N2Cc3ccccc3CC2C(=O)N2C(C(=O)NCC(=O)N[C@@H](Cc3ccccc3)C(=O)N3Cc4ccccc4CC3C(=O)N3C(C(=O)NCC(=O)N[C@@H](CCCCN)C(=O)N4Cc5ccccc5CC4C(=O)NCCCC(=O)N[C@@H](CCCCN)C(=O)N[C@@H](CCCCN)C(=O)N[C@@H](CCCCN)C(=O)N[C@@H](CCCCN)C(N)=O)CC4CCCCC43)CC3CCCCC32)CC2CCCCC21 (stereo partly drawn) [FKAB-1G-Gaba, Ac-GF-Tic-Oic-GK-Tic-Oic-GF-Tic-Oic-GK-Tic-Gaba-KKKK-CONH2] (Ac-GF[ξTic][ξOic]GK[ξTic][ξOic]GF[ξTic][ξOic]GK[ξTic][GABA]KKKK-NH2) | 117 | 120 |  | 80 | 86 |  |  | 3 | 113 | 72 | 118 | 71 | 66 |  |  | 10 | >500 | >500 | 104 | 88 | Minimum Inhibitory Concentration Plague CO92 (Plague CO92; listed as 53): 31.25 µg/mL; Minimum Inhibitory Concentration Bacillus anthracis Ames (Bacillus anthracis Ames; listed as 53): 0.98 µg/mL
4 | CC(=O)NCC(=O)N[C@@H](Cc1ccccc1)C(=O)N1Cc2ccccc2CC1C(=O)N1C(C(=O)NCC(=O)N[C@@H](CCCCN)C(=O)N2Cc3ccccc3CC2C(=O)N2C(C(=O)NCC(=O)N[C@@H](Cc3ccccc3)C(=O)N3Cc4ccccc4CC3C(=O)N3C(C(=O)NCC(=O)N[C@@H](CCCCN)C(=O)N4Cc5ccccc5CC4C(=O)N[C@@H](CCCCN)C(=O)N[C@@H](CCCCN)C(=O)N[C@@H](CCCCN)C(=O)N[C@@H](CCCCN)C(N)=O)CC4CCCCC43)CC3CCCCC32)CC2CCCCC21 (stereo partly drawn) [FKAB-1G, Ac-GF-Tic-Oic-GK-Tic-Oic-GF-Tic-Oic-GK-Tic-KKKK-CONH2] (Ac-GF[ξTic][ξOic]GK[ξTic][ξOic]GF[ξTic][ξOic]GK[ξTic]KKKK-NH2) | 55 | 73 | 91 | 50 | 63 | 14 | 10.00 (≈ 24.4 µg/mL) |  | 71 | 79 |  | 10 | 12 | 1.00 (≈ 2.44 µg/mL) | 3.00 (≈ 7.32 µg/mL) | 3 |  |  | 90 | 80 | % hemolysis / Hemolytic activity (red blood cells [10]): 14%; % hemolysis / Hemolytic activity (red blood cells [10]; listed as 25): 14%; MIC Salmonella typhimurium [11]: 10 µM (≈ 24.4 µg/mL)
5 | CC(=O)NCC(=O)N[C@@H](Cc1ccc(F)cc1)C(=O)N1Cc2ccccc2CC1C(=O)N1C(C(=O)NCC(=O)N[C@@H](CCCCN)C(=O)N2Cc3ccccc3CC2C(=O)N2C(C(=O)NCC(=O)N[C@@H](Cc3ccc(F)cc3)C(=O)N3Cc4ccccc4CC3C(=O)N3C(C(=O)NCC(=O)N[C@@H](CCCCN)C(=O)N4Cc5ccccc5CC4C(=O)N[C@@H](CCCCN)C(=O)N[C@@H](CCCCN)C(=O)N[C@@H](CCCCN)C(=O)N[C@@H](CCCCN)C(N)=O)CC4CCCCC43)CC3CCCCC32)CC2CCCCC21 (stereo partly drawn) [FKAB-1Go, Ac-G-Fpa-Tic-Oic-GK-Tic-Oic-G-Fpa-Tic-Oic-GK-Tic-KKKK-CONH2] (Ac-G[Phe(4-F)][ξTic][ξOic]GK[ξTic][ξOic]G[Phe(4-F)][ξTic][ξOic]GK[ξTic]KKKK-NH2) | 57 | 65 | 94 | 54 | 59 |  | 3.00 (≈ 7.43 µg/mL) | 3 | 74 | 57 | 103 | 26 | 22 | 0.30 (≈ 0.743 µg/mL) | 10.00 (≈ 24.8 µg/mL) | 10 | 250 | >500 | 75 | 81 | Minimum Inhibitory Concentration Plague CO92 (Plague CO92; listed as 44): 31.25 µg/mL; Minimum Inhibitory Concentration Bacillus anthracis Ames (Bacillus anthracis Ames; listed as 44): 0.98 µg/mL; Minimum Inhibitory Concentration Bacillus subtillis [8]: 0.3 µM; MIC Salmonella typhimurium [11]: 30 µM (≈ 74.3 µg/mL); Minimum Inhibitory Concentration Salmonella typhimurium [11]: 30 µM
